pIC50: −log10 of the molar value. Calls of active or inactive are those of the source. No cut-off for these calls is given here.
Key:
Rattus norvegicus [1] = assay: Activity in Langendorff perfused Wistar rat heart subjected to ischemia-reperfusion cycles at 40 mg/kg, ip after 120 mins; format: functional; details: route intraperitoneal
Aorta [2] = assay: Vasorelaxation activity on KCl-induced contractile tone in Wistar rat thoracic aortic ring at 100 uM; format: functional
Rattus norvegicus [3] = assay: Activity in Langendorff perfused Wistar rat heart subjected to ischemia-reperfusion cycles at 40 mg/kg, ip after 30 mins; format: functional; details: route intraperitoneal
Rattus norvegicus [4] = assay: Ischemia-injured area relative to total area in Langendorff perfused Wistar rat heart subjected to ischemia-reperfusion cycles at 40 mg/kg, ip; format: functional; details: route intraperitoneal
Aorta [5] = assay: Vasorelaxation activity on KCl-induced contractile tone in Wistar rat thoracic aortic ring; format: functional, tissue-based
Rattus norvegicus [6] = assay: LDH release in Langendorff perfused Wistar rat heart subjected to ischemia-reperfusion cycles at 40 mg/kg, ip after 120 mins; format: functional; details: route intraperitoneal
Rattus norvegicus [7] = assay: LDH release in Langendorff perfused Wistar rat heart subjected to ischemia-reperfusion cycles at 40 mg/kg, ip after 120 mins in presence of 5-hydroxydecanoic acid; format: functional; details: route intraperitoneal
Rattus norvegicus [8] = assay: Activity in Langendorff perfused Wistar rat heart subjected to ischemia-reperfusion cycles at 40 mg/kg, ip after 30 mins in presence of 5-hydroxydecanoic acid; format: functional; details: route intraperitoneal
Rattus norvegicus [9] = assay: Ischemia-injured area relative to total area in Langendorff perfused Wistar rat heart subjected to ischemia-reperfusion cycles at 40 mg/kg, ip in presence of 5-hydroxydecanoic acid; format: functional; details: route intraperitoneal
Rattus norvegicus [10] = assay: Activity in Langendorff perfused Wistar rat heart subjected to ischemia-reperfusion cycles at 40 mg/kg, ip after 120 mins in presence of 5-hydroxydecanoic acid; format: functional; details: route intraperitoneal
Rattus norvegicus [11] = assay: Ischemia-injured area relative to total area in Langendorff perfused Wistar rat heart subjected to ischemia-reperfusion cycles at 1 mg/kg, ip; format: functional; details: route intraperitoneal
Rattus norvegicus [12] = assay: LDH release in Langendorff perfused Wistar rat heart subjected to ischemia-reperfusion cycles at 1 mg/kg, ip after 120 mins in presence of 5-hydroxydecanoic acid; format: functional; details: route intraperitoneal
Rattus norvegicus [13] = assay: Activity in Langendorff perfused Wistar rat heart subjected to ischemia-reperfusion cycles at 1 mg/kg, ip after 120 mins in presence of 5-hydroxydecanoic acid; format: functional; details: route intraperitoneal
Rattus norvegicus [14] = assay: Decrease in systolic blood pressure in Wistar rat at 1 mg/kg, ip after 60 mins; format: functional, organism-based; set-up: dose 1 mg/kg; details: Artery
Rattus norvegicus [15] = assay: Activity in Langendorff perfused Wistar rat heart subjected to ischemia-reperfusion cycles at 1 mg/kg, ip after 30 mins in presence of 5-hydroxydecanoic acid; format: functional; details: route intraperitoneal
Rattus norvegicus [16] = assay: LDH release in Langendorff perfused Wistar rat heart subjected to ischemia-reperfusion cycles at 1 mg/kg, ip after 120 mins; format: functional; details: route intraperitoneal
Rattus norvegicus [17] = assay: Activity in Langendorff perfused Wistar rat heart subjected to ischemia-reperfusion cycles at 1 mg/kg, ip after 120 mins; format: functional; details: route intraperitoneal
Rattus norvegicus [18] = assay: Ischemia-injured area relative to total area in Langendorff perfused Wistar rat heart subjected to ischemia-reperfusion cycles at 1 mg/kg, ip in presence of 5-hydroxydecanoic acid; format: functional; details: route intraperitoneal
Rattus norvegicus [19] = assay: Activity in Langendorff perfused Wistar rat heart subjected to ischemia-reperfusion cycles at 1 mg/kg, ip after 30 mins; format: functional; details: route intraperitoneal

pIC50 (Aorta [5]) | Compound | Activity (Rattus norvegicus [1]) | Emax at 100 µM (Aorta [2]) | Activity (Rattus norvegicus [3]) | Activity (Rattus norvegicus [4]) | LDH release (Rattus norvegicus [6]) | Activity (Rattus norvegicus [7]) | Activity (Rattus norvegicus [8]) | Activity (Rattus norvegicus [9]) | Activity (Rattus norvegicus [10]) | Activity (Rattus norvegicus [11]) | Activity (Rattus norvegicus [12]) | Activity (Rattus norvegicus [13]) | Activity (Rattus norvegicus [14]) | Activity (Rattus norvegicus [15]) | Activity (Rattus norvegicus [16]) | Activity (Rattus norvegicus [17]) | Activity (Rattus norvegicus [18]) | Activity (Rattus norvegicus [19])
4.88 | CC(=O)Nc1ccc(CN2CCOC3(C2)CC(C)(C)Oc2ccccc23)cc1 (racemic) | 17% | 77% | 12% | 50% | 16 U/g |  |  |  |  |  |  |  |  |  |  |  |  | 
4.82 | CC(=O)Nc1ccc(CN2CC3(CC(C)(C)Oc4ccc(Br)cc43)OCC2=O)cc1 (racemic) | 3% | 70% | 2% | 58% | 12.4 U/g |  |  |  |  |  |  |  |  |  |  |  |  | 
5.14 | CC1(C)CC2(CN(Cc3ccc(NS(C)(=O)=O)cc3)C(=O)CO2)c2cc(Br)ccc2O1 (racemic) | 57% | 87% | 75% | 13% | 3 U/g | 11.7 U/g | 52% | 47% | 39% |  |  |  |  |  |  |  |  | 
4.60 | CC(=O)Nc1ccc(CN2CC3(CC(C)(C)Oc4ccccc43)OCC2=O)cc1 (racemic) | 62% | 57% | 79% | 20% | 6 U/g | 13.5 U/g | 16% | 49% | 27% |  |  |  |  |  |  |  |  | 
5.62 | CC(=O)Nc1ccc(CN2CCOC3(C2)CC(C)(C)Oc2ccc(Br)cc23)cc1 (racemic) | 26% | 99% | 15% | 61% | 11.3 U/g |  |  |  |  |  |  |  |  |  |  |  |  | 
 | CC1(C)CC2(CN(Cc3ccc(NS(C)(=O)=O)cc3)CCO2)c2cc(Br)ccc2O1 (racemic) | 77% | 98% | 89% | 14% | 6.9 U/g | 13.4 U/g | 17% | 40% | 33% |  |  |  |  |  |  |  |  | 
7.01 | CC1(C)Oc2ccc(C#N)cc2C(N2CCCC2=O)C1O (racemic) [CROMAKALIM] |  | 98% |  |  |  |  |  |  |  | 25% | 8.6% | 18% | Active | 11% | 5.5% | 84% | 38% | 99%
4.72 | CC1=Nc2ccc(Cl)cc2S(=O)(=O)N1 [DIAZOXIDE] | 47% | 97% | 80% | 22% | 5.7 U/g | 14.5% | 13% | 52% | 6% |  |  |  |  |  |  |  |  | 

Source: ChEMBL document CHEMBL1138211, “New benzopyran-based openers of the mitochondrial ATP-sensitive potassium channel with potent anti-ischemic properties” (J Med Chem, 2006)
